Measurements as given in ChEMBL document CHEMBL1127260, “EMD 61 753 as a favourable representative of structurally novel arylacetamido-type K opiate receptor agonists” (Bioorg Med Chem Lett, 1994).

Legend:
[1] = biological target: Kappa-type opioid receptor (Cavia porcellus, UniProt P41144); assay: Affinity at K opioid receptor on membranes prepared from guinea pig cerebellum by [3H]- 69593 displacement.; type: tissue-based
Mu-type opioid receptor = Mu-type opioid receptor (Rattus norvegicus, UniProt P33535); assay: Affinity to mu opioid receptor determined in the presence of [3H]- PL 017 using membranes prepared from rat cerebrum
[2] = biological target: Delta-type opioid receptor (Rattus norvegicus, UniProt P33533); assay: Affinity to delta opioid receptor determined in the presence of [3H]- [D-Pen2,5]enkephalin using membranes prepared from rat cerebrum
Mus musculus [3] = assay: Inhibitory dose (sc) in the formalin test in mice at early phase; type: functional; conditions: read-out: ID50 (the source's name)
Mus musculus [4] = assay: Inhibitory dose (sc) in the formalin test in mice at late phase; type: functional; conditions: read-out: ID50 (the source's name)

Sequence of Delta-type opioid receptor (P33533 whole entry): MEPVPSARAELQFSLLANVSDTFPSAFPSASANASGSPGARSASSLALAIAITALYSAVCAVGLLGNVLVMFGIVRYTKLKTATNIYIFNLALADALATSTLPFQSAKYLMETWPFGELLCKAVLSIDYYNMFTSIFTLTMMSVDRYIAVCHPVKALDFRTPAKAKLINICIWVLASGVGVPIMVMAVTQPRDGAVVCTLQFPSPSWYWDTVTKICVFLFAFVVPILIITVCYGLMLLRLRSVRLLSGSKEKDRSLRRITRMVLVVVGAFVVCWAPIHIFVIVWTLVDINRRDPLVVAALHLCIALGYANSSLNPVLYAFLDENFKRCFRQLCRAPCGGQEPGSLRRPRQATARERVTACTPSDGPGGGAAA
Sequence of Kappa-type opioid receptor (P41144 whole entry): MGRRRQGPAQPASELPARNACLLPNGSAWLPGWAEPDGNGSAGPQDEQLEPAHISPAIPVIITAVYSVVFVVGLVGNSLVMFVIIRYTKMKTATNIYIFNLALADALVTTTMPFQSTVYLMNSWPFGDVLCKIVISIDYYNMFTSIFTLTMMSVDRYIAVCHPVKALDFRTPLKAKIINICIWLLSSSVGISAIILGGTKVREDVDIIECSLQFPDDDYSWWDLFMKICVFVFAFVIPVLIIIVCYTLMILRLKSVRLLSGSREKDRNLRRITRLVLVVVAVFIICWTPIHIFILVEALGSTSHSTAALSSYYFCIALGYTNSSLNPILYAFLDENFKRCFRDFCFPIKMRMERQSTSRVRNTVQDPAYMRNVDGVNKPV
Sequence of Mu-type opioid receptor (P33535 whole entry): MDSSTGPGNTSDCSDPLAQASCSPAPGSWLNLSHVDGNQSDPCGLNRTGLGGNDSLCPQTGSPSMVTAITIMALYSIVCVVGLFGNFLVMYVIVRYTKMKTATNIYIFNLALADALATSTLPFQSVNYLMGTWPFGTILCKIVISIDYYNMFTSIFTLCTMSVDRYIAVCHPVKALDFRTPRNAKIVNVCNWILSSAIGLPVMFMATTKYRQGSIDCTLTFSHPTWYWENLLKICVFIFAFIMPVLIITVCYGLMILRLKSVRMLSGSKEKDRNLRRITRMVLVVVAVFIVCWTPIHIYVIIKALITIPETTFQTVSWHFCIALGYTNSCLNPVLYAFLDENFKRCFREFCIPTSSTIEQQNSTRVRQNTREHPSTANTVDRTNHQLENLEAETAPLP

SMILES	Ki ([1]; read-out: Ki) [nM]	Ki (Mu-type opioid receptor) [nM]	Ki [2] [nM]	Ki [1] [nM l-1]	ED50 (Mus musculus [3]) [mg/kg]	ED50 (Mus musculus [4]) [mg/kg]
CN(C(=O)C(c1ccccc1)c1ccccc1)[C@H](CN1CC[C@H](O)C1)c1cccc(N)c1	6	–	–	–	–	–
CN(C(=O)C1c2ccccc2Oc2ccccc21)[C@H](CN1CC[C@H](O)C1)c1ccccc1	4	> 100	> 100	–	–	–
CN(C(=O)C(c1ccccc1)c1ccccc1)[C@H](CN1CC[C@H](O)C1)c1cccc([N+](=O)[O-])c1.Cl	–	–	–	20	–	–
COc1ccc([C@@H](CN2CC[C@H](O)C2)N(C)C(=O)C(c2ccccc2)c2ccccc2)cc1	7	–	–	–	–	–
CC(=O)Nc1cccc([C@@H](CN2CC[C@H](O)C2)N(C)C(=O)C(c2ccccc2)c2ccccc2)c1	6	–	–	–	–	–
CN(C(=O)C(c1ccc(F)cc1)c1ccc(F)cc1)[C@H](CN1CC[C@H](O)C1)c1ccccc1	7	> 100	> 100	–	–	–
CN(C(=O)C1c2ccccc2Cc2ccccc21)[C@H](CN1CC[C@H](O)C1)c1ccccc1	4	> 100	> 100	–	–	–
CN(C(=O)C(c1ccc(Cl)cc1)c1ccc(Cl)cc1)[C@H](CN1CC[C@H](O)C1)c1ccccc1	5	> 100	> 100	–	–	–
CN(C(=O)C(c1cccs1)c1cccs1)[C@H](CN1CC[C@H](O)C1)c1ccccc1	4	> 100	> 100	–	–	–
CN(C(=O)C1c2ccccc2-c2ccccc21)[C@H](CN1CC[C@H](O)C1)c1ccccc1	6	40	60	–	–	–
CN(C(=O)C(c1ccccc1)c1ccccc1)[C@H](CN1CC[C@H](O)C1)c1ccc(O)cc1	6	–	–	–	–	–
CN(C(=O)C1c2ccccc2CCc2ccccc21)[C@H](CN1CC[C@H](O)C1)c1ccccc1.Cl	–	> 100	> 100	20	–	–
Cc1ccc(C(C(=O)N(C)[C@H](CN2CC[C@H](O)C2)c2ccccc2)c2ccc(C)cc2)cc1.Cl	–	> 100	> 100	20	–	–
CN(C(=O)C1c2ccccc2Sc2ccccc21)[C@H](CN1CC[C@H](O)C1)c1ccccc1	10	> 100	> 100	–	–	–
CC(C)[C@@H](CN1CCCC1)N(C)C(=O)Cc1ccc(Cl)c(Cl)c1	–	–	–	–	0.04	0.02
CN(C(=O)C(c1ccccc1)C1CCCCC1)[C@H](CN1CC[C@H](O)C1)c1ccccc1 (stereo in doubt; form 1)	10	> 100	> 100	–	–	–
CN(C(=O)C(c1ccccc1)C1CCCCC1)[C@H](CN1CC[C@H](O)C1)c1ccccc1 (stereo in doubt; form 2)	10	> 100	> 100	–	–	–
CN(C(=O)C(c1ccccc1)c1ccccc1)[C@H](CN1CC[C@H](O)C1)c1ccccc1.Cl [ASIMADOLINE HYDROCHLORIDE]	–	> 100	> 100	–	> 2	0.24
CN1CC[C@]23c4c5ccc(O)c4O[C@H]2[C@@H](O)C=C[C@H]3[C@H]1C5 [MORPHINE]	–	–	–	–	1.7	3.4
